The nature of data set [1]: In vivo non-toxicity of Ara-N3 in nude mice. Details: species or system NMRI nude mice. As to the method: Ten Female NMRI nude mice (6 weeks old, Janvier, Le Genest-Saint Isle, France) were enrolled in this assay. Three were injected intravenously every other day for 8 days (4 injections) with 50 mg/mouse/injection of Ara-N3 for 200 mg cumulative dose, and three other mice were treated for 8 days with 50 mg of Ara-N3 in 8 mL of water consumed per day, for 400 mg cumulative dose. As control groups, four tumor-bearing mice were not treated.
Mice were euthanized and dissected at the end of treatment. Heart, lung, brain, uterus, ovaries, kidney, skeletal muscle, spleen, pancreas, abdominal fat, liver, skin, stomach, colon, caecum, small intestine, mesenteric lymph nodes, axillary lymph nodes, brachial lymph nodes and total blood were harvested and frozen for analyses.

Data set [2] has as its system HT29 (vs Colon epithelial cell). Description: Labeling of cancer and non-cancer cells, fluorescence signal ratio. In kind it is cell-based, human. The following applies: HT29 (doubling time 40 h) vs Colon epithelial cell (40 h); Ara-N3 10 mM; FBS 10%; test at 2 doubling time. As to the method: The fluorescence Assimilation of Ara-N3 probes was visualized by copper-free click chemistry using sulfo-DBCO-biotin (1 mM), followed by labeling with a mouse anti-biotin Alexa Fluor 488 antibody conjugate (0.62 mg/ml stock, Jackson ImmunoResearch, dilution 1/10). The click reaction was carry-out as following: At 24 h incubation times, the culture mediums were removed, and attached cells were washed twice with PBS. Cells were detached with Tryp-LE, washed twice with PBS, and centrifuged at 13000 g for 2 min. The cellular pellets were resuspended with 10 μL of sulfo-DBCO-biotin and incubated 30 min in the dark, and at 37 C°. Then, cells were washed twice with PBS, centrifuged, and cellular pellets were resuspended with 10 μL of a mouse anti-biotin antibody solution, before to be incubated at room temperature in dark. Thereafter, cells were washed twice with PBS and small cellular suspension spots (5 μL) were put in Polysine® adhesion slides (VWR international S.A.S), in the dark room, until dry (20 min). The spots were fixed with 4% paraformaldehyde during 20 min, in dark and room temperature. Slides were then washed twice with PBS, before recovering with square cover glasses (VWR international S.A.S) using glycerol Mounting Medium (Dako) and stored at 4° C. in dark room.
The fluorescence acquisition was recorded using Olympus Microscopy IX83 (Olympus Life Science) equipped with a 60×/1.3 […]/1.4 SRI (silicone refractive index) objective, and Hamamatsu oreca flash 4 LT camera with 109 nm/pixel calibrated pixel size. The excitation light was emitted by X-CITE 120LED using the AT180/30X excited filter and signal was monitored using AT535/40m emission filter. Green light exposition time was 600 ms and white light exposition time was determined by DIC methods at […]. The acquisition area size analyzed by the Celisens dimension V1.16 software was different depending on the cell number containing in the spot.
The images were processed using count and measure unit of the Cellsens dimension V1.16 software. The background noise was deleted as follows: ROI were first defined on the background of the image and the average pixel intensity was calculated. The value thus obtained was subtracted from all pixels of the image. The fluorescence intensity of each cell was determined from a threshold set at a value of 3030. All pixels that have intensity below 3030 were not counted.
The same experiments as in example 2 with other cancer and corresponding non cancer cells were performed. The culture media were adapted to the tested cells and supplemented by 10% fetal bovine serum (FBS). Ara-N3 probe (10 mM) was added to culture media with FBS concentration (10%). The incubation times corresponded to one doubling time or twice doubling time of the tested cells (see table below).
The fluorescence signal cancer/non cancer ratios were calculated based on fluorescence intensities obtained with Ara-N3 tested on cancer and corresponding non cancer cells.

Structures are written as SMILES. Bounds are passed on as bounds.

Turning to `[N-]=[N+]=NC[C@H]1OC(O)[C@@H](O)[C@@H]1O` (stereo partly drawn) [Ara-N3, 5-azido-5-deoxy-D-arabinofuranose], the “water consumption of the mice” value in data set [1] (Ara-N3 in drinking water up to 6.25 mg/mL, 8 days) is reported as “did not alter the water consumption”. The “Non-toxic concentration of Ara-N3” value in data set [1] (In vivo, Nude mouse (mice)) was over 1 mM. The body weight loss entry in data set [1] (in drinking water, 50 mg in 8 mL per day for 8 days, 400 mg cumulative dose) was “did not induce any body weight loss”; in data set [1] (intravenous injections, 50 mg/mouse/injection every other day for 8 days, 200 mg cumulative dose), “did not induce any body weight loss”. Besides, the “Cancer/Non Cancer Ratio (fluorescence signal)” value in data set [2] is recorded as 13.2.

Source of the values: patent US12517131B2, “Methods for labeling eukaryotic cells from a multicellular organism as well as for treating and/or diagnosing a cancer using modified monosaccharide compounds” (DIAMIDEX, priority 2019, dated 2026).
